Laboratory results taken from paper PMC11329504, “Identification of novel small molecule-based strategies of COL7A1 upregulation and readthrough activity for the treatment of recessive dystrophic epidermolysis bullosa” (Scientific Reports, 2024).

Key:
Tyk2 = Tyk2 (Homo sapiens, UniProt P29597); assay: Enzymatic Tyk2 kinase activity; format: biochemical; details: dose-response curves; read-out: IC50 ± SD, Tyk2
Method: (§1) Enzymatic Syk kinase activity assays were performed as previously described. Enzymatic activity of JAK1, JAK2, JAK3, and Tyk kinases was evaluated as previously described.

JAK3 = biological target: T1, JAK3 (Homo sapiens, UniProt P52333); assay: Enzymatic JAK3 kinase activity; format: biochemical; details: dose-response curves; read-out: IC50 ± SD, JAK3
T1 sequence (P52333 1-1124): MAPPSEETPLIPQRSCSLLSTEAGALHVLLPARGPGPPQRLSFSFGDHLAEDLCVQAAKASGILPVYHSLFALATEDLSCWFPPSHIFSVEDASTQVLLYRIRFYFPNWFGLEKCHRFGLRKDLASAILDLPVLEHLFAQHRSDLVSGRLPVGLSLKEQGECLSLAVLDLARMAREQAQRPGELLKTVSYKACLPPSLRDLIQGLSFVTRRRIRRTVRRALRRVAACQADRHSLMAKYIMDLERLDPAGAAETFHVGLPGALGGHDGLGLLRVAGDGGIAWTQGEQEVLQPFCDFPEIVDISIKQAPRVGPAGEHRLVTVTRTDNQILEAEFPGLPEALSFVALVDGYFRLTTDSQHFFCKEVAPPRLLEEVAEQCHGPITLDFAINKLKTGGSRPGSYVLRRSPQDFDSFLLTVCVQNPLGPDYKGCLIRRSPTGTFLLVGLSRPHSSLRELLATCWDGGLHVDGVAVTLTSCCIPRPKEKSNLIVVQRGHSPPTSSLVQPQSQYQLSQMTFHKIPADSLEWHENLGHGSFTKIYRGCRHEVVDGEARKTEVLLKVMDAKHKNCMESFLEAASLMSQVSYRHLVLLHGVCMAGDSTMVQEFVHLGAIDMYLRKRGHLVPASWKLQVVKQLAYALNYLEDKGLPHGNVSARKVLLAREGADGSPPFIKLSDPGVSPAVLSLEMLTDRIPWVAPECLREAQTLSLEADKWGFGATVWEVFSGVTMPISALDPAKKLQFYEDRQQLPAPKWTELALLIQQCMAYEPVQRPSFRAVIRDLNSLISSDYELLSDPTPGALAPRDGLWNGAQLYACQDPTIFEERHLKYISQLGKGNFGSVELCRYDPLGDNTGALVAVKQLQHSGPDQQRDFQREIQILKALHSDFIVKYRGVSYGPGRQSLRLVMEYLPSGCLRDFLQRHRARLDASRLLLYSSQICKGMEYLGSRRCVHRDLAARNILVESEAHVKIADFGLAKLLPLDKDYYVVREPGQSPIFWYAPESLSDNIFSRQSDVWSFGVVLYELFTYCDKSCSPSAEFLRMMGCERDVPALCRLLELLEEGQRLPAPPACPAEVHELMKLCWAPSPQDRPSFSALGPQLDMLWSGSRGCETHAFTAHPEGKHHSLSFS
Method: as §1

JAK2 = JAK2 (Homo sapiens, UniProt O60674); assay: Enzymatic JAK2 kinase activity; format: biochemical; details: dose-response curves; read-out: IC50 ± SD, JAK2
Method: as §1

Dopamine transporter = biological target: T2, Dopamine transporter (Homo sapiens, UniProt Q01959); assay: Selectivity panel (Eurofins): dopamine transporter; format: binding; details: n = 1, duplicate
T2 construct: Eurofins Pharma Discovery Services
Method: (§2) Selectivity was evaluated at Eurofins Pharma Discovery Services at 3 µM, 10 µM, and 30 µM in duplicate using a selection of 84 representative kinases and 44 GPCRs, transporters, nuclear receptors (NR), enzymes, and ion channels.

Kappa (KOP) = assay: Selectivity panel (Eurofins): Kappa (KOP); format: binding; details: n = 1, duplicate
Method: as §2

T2 sequence (Q01959 whole entry): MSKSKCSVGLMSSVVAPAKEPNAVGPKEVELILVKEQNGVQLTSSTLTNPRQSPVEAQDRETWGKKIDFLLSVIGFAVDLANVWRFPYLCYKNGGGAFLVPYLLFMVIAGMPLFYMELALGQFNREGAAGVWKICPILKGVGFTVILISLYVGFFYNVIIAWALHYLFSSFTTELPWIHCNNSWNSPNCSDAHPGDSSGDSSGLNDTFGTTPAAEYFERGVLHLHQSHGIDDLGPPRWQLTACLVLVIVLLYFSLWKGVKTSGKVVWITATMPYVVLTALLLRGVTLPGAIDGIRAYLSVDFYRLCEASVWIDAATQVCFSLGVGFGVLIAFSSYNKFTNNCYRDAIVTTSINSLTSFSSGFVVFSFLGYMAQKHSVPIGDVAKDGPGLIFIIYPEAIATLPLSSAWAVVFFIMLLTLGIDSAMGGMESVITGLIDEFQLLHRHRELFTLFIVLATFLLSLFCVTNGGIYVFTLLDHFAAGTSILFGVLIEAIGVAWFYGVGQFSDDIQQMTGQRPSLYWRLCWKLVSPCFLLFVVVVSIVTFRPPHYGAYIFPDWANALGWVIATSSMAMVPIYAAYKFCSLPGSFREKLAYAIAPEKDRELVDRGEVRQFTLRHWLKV
Chain of Tyk2 (P29597 whole entry, species assumed): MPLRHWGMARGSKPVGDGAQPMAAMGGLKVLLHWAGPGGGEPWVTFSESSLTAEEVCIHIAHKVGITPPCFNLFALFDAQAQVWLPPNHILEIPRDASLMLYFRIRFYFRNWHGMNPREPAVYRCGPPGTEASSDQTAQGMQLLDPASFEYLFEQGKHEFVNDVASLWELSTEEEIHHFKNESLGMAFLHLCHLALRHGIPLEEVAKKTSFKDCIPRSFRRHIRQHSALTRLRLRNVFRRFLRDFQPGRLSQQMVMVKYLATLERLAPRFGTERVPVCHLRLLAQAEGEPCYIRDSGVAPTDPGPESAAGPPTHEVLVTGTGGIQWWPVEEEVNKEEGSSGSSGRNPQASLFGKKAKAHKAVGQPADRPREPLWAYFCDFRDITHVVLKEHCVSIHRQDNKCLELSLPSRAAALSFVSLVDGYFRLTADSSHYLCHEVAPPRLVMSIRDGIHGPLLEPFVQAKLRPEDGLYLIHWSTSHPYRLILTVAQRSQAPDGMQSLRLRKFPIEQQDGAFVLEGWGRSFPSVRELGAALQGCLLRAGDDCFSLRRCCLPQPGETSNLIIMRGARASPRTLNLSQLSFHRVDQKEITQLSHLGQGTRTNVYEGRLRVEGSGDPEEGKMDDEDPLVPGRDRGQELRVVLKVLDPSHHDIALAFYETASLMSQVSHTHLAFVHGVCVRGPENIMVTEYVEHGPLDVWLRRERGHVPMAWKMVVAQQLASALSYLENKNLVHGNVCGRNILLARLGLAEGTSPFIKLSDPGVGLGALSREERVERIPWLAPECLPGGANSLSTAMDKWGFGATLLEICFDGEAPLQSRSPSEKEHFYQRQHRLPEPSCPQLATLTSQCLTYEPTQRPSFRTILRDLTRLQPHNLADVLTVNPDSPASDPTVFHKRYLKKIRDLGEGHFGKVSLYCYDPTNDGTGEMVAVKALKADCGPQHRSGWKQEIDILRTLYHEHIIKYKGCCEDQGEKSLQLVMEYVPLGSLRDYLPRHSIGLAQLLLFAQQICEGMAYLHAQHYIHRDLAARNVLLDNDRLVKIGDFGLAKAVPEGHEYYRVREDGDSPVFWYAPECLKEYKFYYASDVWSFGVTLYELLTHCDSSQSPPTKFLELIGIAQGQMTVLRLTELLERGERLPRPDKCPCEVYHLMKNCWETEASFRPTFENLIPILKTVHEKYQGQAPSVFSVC
Chain of JAK2 (O60674 whole entry, species assumed): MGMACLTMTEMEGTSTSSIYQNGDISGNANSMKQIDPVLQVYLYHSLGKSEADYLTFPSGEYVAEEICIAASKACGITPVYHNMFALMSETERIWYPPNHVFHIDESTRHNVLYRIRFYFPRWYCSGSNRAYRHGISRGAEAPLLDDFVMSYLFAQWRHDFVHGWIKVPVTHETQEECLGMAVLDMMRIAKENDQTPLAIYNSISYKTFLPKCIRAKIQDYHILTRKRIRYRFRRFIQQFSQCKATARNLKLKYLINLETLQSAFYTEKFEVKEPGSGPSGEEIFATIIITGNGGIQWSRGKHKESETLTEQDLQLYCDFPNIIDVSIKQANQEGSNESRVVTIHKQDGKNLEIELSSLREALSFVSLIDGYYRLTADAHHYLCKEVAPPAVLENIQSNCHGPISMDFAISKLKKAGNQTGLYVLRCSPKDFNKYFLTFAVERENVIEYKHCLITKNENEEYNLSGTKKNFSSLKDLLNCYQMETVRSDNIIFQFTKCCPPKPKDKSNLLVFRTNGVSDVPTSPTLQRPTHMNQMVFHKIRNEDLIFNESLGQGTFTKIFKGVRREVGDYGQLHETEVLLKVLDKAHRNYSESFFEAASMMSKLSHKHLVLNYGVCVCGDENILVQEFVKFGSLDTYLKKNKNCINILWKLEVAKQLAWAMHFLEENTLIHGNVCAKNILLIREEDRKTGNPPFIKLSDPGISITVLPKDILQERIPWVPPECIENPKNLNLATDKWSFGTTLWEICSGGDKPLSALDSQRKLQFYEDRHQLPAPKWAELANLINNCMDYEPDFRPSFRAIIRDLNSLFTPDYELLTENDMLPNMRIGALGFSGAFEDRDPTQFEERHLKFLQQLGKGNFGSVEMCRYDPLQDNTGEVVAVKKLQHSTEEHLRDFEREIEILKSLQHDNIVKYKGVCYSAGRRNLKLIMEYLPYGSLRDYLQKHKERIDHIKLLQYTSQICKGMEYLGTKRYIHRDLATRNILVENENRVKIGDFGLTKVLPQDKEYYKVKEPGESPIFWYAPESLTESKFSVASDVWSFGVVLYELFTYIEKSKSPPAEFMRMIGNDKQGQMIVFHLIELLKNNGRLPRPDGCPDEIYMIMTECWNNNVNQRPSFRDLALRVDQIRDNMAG

SMILES | IC50 (Tyk2) | IC50 (JAK3) | IC50 (JAK2) | inhibition at 3 µM (Dopamine transporter; at 3 μM) | inhibition at 10 µM (Dopamine transporter; at 10 μM) | inhibition at 30 µM (Dopamine transporter; at 30 μM) | % inhibition, Kappa (KOP) (Kappa (KOP); at 3 μM) | % inhibition, Kappa (KOP) (Kappa (KOP); at 10 μM) | % inhibition, Kappa (KOP) (Kappa (KOP); at 30 μM)
NC(=O)Cn1ccc2ccc(-c3cnc(N)c(C(=O)NC4C5CC6CC4CC(O)(C6)C5)n3)cc21 (stereo not drawn) [Compound 1] | 30 ± 0.6 nM | 60 ± 6 nM | 120 ± 60 nM | – | – | – | – | – | –
C#Cc1cc(-c2ccncc2)c(-c2cccc(F)c2)nc1N [Compound 7] | – | – | – | 17% | 40% | 64% | 12% | 32% | 54%
